Data on 3 molecules can be found in patent US20250018014A1, “METHOD FOR TREATING AND/OR PREVENTING REGNASE-1-RELATED DISEASE” (OSAKA UNIVERSITY, priority 2018, published 2025).

pIC50: −log10 of the molar value. Residues, ends and D or L forms follow the SMILES beside them.

Test [1] deals with T1, FL_Reg1 (full-length human Regnase-1) phosphorylation by TBK1 (Homo sapiens, UniProt Q5D1E8).
T1 construct: made in house; host or cells: Expi293 cells
T1 sequence (Q5D1E8 1-599): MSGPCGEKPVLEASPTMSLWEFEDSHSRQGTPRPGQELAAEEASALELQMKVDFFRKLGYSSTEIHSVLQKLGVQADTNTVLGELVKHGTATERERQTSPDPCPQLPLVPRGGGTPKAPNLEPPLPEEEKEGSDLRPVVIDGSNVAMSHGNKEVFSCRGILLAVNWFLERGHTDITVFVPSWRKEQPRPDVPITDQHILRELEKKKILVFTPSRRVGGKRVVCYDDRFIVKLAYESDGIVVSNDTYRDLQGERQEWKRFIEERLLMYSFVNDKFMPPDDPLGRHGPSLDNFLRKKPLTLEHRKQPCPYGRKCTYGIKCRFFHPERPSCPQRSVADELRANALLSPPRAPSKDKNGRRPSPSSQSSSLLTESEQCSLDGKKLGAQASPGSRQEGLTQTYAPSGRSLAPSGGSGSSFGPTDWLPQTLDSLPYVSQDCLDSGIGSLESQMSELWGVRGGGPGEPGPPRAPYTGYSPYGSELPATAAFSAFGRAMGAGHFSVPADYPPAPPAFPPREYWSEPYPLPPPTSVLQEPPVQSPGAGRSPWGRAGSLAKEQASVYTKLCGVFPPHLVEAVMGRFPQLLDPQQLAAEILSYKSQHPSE
Kind of test: Regnase-1 phosphorylation inhibition by compounds (AlphaScreen), TBK1, full-length Regnase-1. It counts as biochemical. The note with it: Table 13; phosphorylation by TBK1; read-out: Phosphorylation inhibition FL_Reg1, 50% inhibition concentration (TBK1). The source says:
(§1) The full-length sequence of human Regnase-1 (UniProt ID: Q5D1E8) was used to prepare a construct having a FLAG tag on the N-terminal side and a recognition sequence for biotin ligase BirA on the C-terminal side (FL_Reg1) as a target protein. The above-mentioned Regnase-1 was expressed in mammalian Expi293 cells, purified with FLAG M2 agarose, and isolated by gel filtration chromatography. When biotinylation was required, methods from nonpatent documents (BMC biotechnology, 2008,8,41; and Protein Science, 1999,8,921-929) were used. […]
(§2) Using Kinase assay buffer III (manufactured by SignalChem) supplemented with 2 mM DTT, 100 μM sodium vanadate, and 2 mM manganese chloride, kinase (IKKβ (manufactured by SignalChem) or TBK1 (manufactured by SignalChem)) and Regnase-1 were reacted in the presence of 10 μM ATP at room temperature for 2 hours to perform a phosphorylation reaction.
(§3) Phosphorylated Regnase-1 was detected by the AlphaScreen system. After each of the above-mentioned phosphorylated Regnase-1 antibodies was added and reacted at room temperature for one hour, anti-FLAG AlphaLISA Acceptor Beads (manufactured by PerkinElmer) and Protein A AlphaScreen Donor Beads (manufactured by PerkinElmer) were added, and EnVision (manufactured by PerkinElmer) was used to measure the excited luminescence. As a result, phosphorylated Regnase-1 produced by the phosphorylation reaction by kinase was specifically detected, and signals were confirmed to be enhanced in a manner dependent on Regnase-1 and kinase concentrations (FIG. 24).
(§4) After mixing 2 nM of the above-mentioned Regnase-1 and the compound, phosphorylated Regnase-1 produced by the phosphorylation reaction was detected by the AlphaScreen system. As the results, the inhibition rate was calculated from the signals obtained when adding the compound at each concentration, by defining the signal obtained with Regnase-1 alone to be 100% inhibition rate, and the signal obtained when the same amount of solvent (DMSO) is added in place of the compound as 0% inhibition rate. The 50% inhibition concentration (μM) was calculated from the obtained dose response curve (Table 11).
In general terms: Bead proximity is the source of the signal in Alpha formats.

Test [2] addresses T2, FL_Reg1 (full-length human Regnase-1) phosphorylation by IKKβ (Homo sapiens, UniProt Q5D1E8).
T2 construct: made in house; host or cells: Expi293 cells
T2 sequence (Q5D1E8 1-599): T1 sequence (Q5D1E8 1-599)
Kind of test: Regnase-1 phosphorylation inhibition by compounds (AlphaScreen), IKKβ, full-length Regnase-1. The test is classed as biochemical. Particulars: Table 14; phosphorylation by IKKβ; read-out: Phosphorylation inhibition FL_Reg1, 50% inhibition concentration (IKKβ).
Description: as §1, §2, §3, §4

The target of test [3] is T3, binding between TBK1 and full-length Regnase-1 (FL_Reg1) (Homo sapiens, UniProt Q5D1E8).
T3 construct: made in house; host or cells: Expi293 cells
T3 sequence (Q5D1E8 1-599): T1 sequence (Q5D1E8 1-599)
The test can be described thus: Inhibition of kinase-Regnase-1 binding by the compounds (AlphaScreen), TBK1. The note with it: Table 13; binding between TBK1 and Regnase-1; read-out: Binding inhibition FL_Reg1, 50% inhibition concentration (TBK1). The procedure: (§5) As a target protein, a construct having a FLAG tag on the N-terminal side and a recognition sequence for biotin ligase BirA on the C-terminal side of the full-length sequence of human Regnase-1 (UniProt ID: Q5D1E8) was prepared (FL_Reg1). The above-mentioned Regnase-1 was expressed in mammalian Expi293 cells, purified with FLAG M2 agarose, and isolated by gel filtration chromatography. When biotinylation was required, methods from nonpatent documents (BMC biotechnology, 2008,8,41; and Protein Science, 1999,8,921-929) were used.
(§6) After mixing 2.5 nM of the above-mentioned Regnase-1 and the compound, 2.5 nM of IKKβ or TBK1 was added and reacted at room temperature for two hours. Then, Anti FLAG AlphaLISA Acceptor Beads (manufactured by PerkinElmer) and Glutathione-coated AlphaScreen Donor Beads (manufactured by PerkinElmer) were added, and excited luminescence was measured using En Vision (manufactured by PerkinElmer). As the results, the inhibition rate from the signals obtained when adding the compound at each concentration were calculated, by defining the signal obtained with Regnase-1 alone to be 100% inhibition rate, and the signal obtained when the same amount of solvent (DMSO) is added in place of the compound as 0% inhibition rate. The 50% inhibition concentration (μM) was calculated from the obtained dose response curve (Table 12).

The target in test [4] is T4, binding between IKKβ and full-length Regnase-1 (FL_Reg1) (Homo sapiens, UniProt Q5D1E8).
T4 construct: made in house; host or cells: Expi293 cells
T4 sequence (Q5D1E8 1-599): T1 sequence (Q5D1E8 1-599)
The test can be described thus: Inhibition of kinase-Regnase-1 binding by the compounds (AlphaScreen), IKKβ. The note with it: Table 14; binding between IKKβ and Regnase-1; read-out: Binding inhibition FL_Reg1, 50% inhibition concentration (IKKβ). The procedure: as §5, §6

For the next test, the target named is T5, FL_Reg1 (Homo sapiens, UniProt Q5D1E8).
T5 construct: made in house; host or cells: Expi293 cells
T5 sequence (Q5D1E8 1-599): T1 sequence (Q5D1E8 1-599)
The test can be described thus: Binding of Regnase-1 and peptide compounds (affinity mass analysis, SEC then LC/MS). Particulars: 1 μM FL_Reg1, final compound concentration 1 μM, 23° C. for one hour. The method, then:
To a 96 PP plate (Greiner bio-one, 651201) coated with lipidure (Lipidure-CM5206) (NOF CORPORATION, 71S42000001), 2 μL of Tris-Buffer (25 mM Tris-NaOH pH 8.3, 300 mM NaCl, 1 mM DTT, 1 mM EDTA, 1% DMSO) was dispensed, and then 1 mM DMSO sample was added at 20 nL each with a LABCYTE ECHO (registered trademark) acoustic dispensing system. Furthermore, 18 μL of protein prepared at 1 μM FL_Reg1 in advance using Tris-Buffer was added (final compound concentration: 1 μM), and the mixture was incubated in the dark at 23° C. for one hour. Then, to a 96-well, 400 μL, Hydrophilic PVDF 0.45 μm, Long drip (Harvard, 74-5556), 100 μL of P-2, Fine (Bio-Rad, 1504114) which had been swollen in advance was added, and conditioning was performed by centrifuging several times at 2000× G for two minutes using the buffer. Next, 20 μL of the sample after incubation was added to the conditioned 96-well, 400 μL, Hydrophilic PVDF 0.45 μm, Long drip, and SEC treatment was performed by centrifugation at 2000×G for two minutes. To the liquid from SEC, 32 μL of acetonitrile (LC/MS grade, FUJIFILM Wako Pure Chemical Industries, Ltd.) supplemented with 0.1% formic acid (LC/MS grade, 067-04531, FUJIFILM Wako Pure Chemical Industries, Ltd.) was added, and this was centrifuged at 1800×G for five minutes, and the supernatant was used as an analysis sample for LC/MS measurement. Binding to Regnase-1 was detected for all of the peptide compounds, PP1 to PP25.

Test [5] has as its target T6, Reg1_301-599 (amino acids 301-599 of human Regnase-1) phosphorylation by IKKβ (Homo sapiens, UniProt Q5D1E8).
T6 construct: made in house; host or cells: Expi293 cells
T6 sequence (Q5D1E8 301-599): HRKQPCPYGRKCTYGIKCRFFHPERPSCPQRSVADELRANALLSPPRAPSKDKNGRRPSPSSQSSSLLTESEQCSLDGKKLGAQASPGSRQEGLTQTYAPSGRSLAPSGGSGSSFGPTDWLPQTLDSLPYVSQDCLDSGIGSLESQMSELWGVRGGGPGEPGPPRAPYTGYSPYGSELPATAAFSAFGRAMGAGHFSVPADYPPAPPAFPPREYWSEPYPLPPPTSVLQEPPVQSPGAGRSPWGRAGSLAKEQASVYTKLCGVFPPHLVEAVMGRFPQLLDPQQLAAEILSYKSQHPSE
The test can be described thus: Regnase-1 phosphorylation inhibition by compounds (AlphaScreen), IKKβ, C-terminal Regnase-1. The test is classed as biochemical. Particulars: Table 14, read-out: Phosphorylation inhibition Reg1_301-599, 50% inhibition concentration (IKKβ).
Description: The full-length sequence of human Regnase-1 (UniProt ID: Q5D1E8) was used to prepare a construct having a FLAG tag on the N-terminal side and a recognition sequence for biotin ligase BirA on the C-terminal side (FL_Reg1) as a target protein. The above-mentioned Regnase-1 was expressed in mammalian Expi293 cells, purified with FLAG M2 agarose, and isolated by gel filtration chromatography. When biotinylation was required, methods from nonpatent documents (BMC biotechnology, 2008,8,41; and Protein Science, 1999,8,921-929) were used.
(§7) Among the full-length human Regnase-1 sequence, the 1st to 546th amino acid sequence was prepared and made into a construct having a FLAG tag on the N-terminal side and a biotin ligase BirA recognition sequence on the C-terminal side (herein, a Regnase-1 lacking the C-terminal domain of Regnase-1 (amino acids 547 to 599 in the case of SEQ ID NO: 2) is referred to as “ΔCTD_Reg1”. “ΔCTD_Reg1” is different from “Regnase-1ΔCTD”, which is a C-terminal domain deletion variant resulting from a frameshift mutation caused by a 1 bp deletion at codon 517, as prepared in Example 13). In addition, the sequence from amino acids 301 to 599 of the full-length human Regnase-1 sequence was designated as C-terminal Regnase-1, and a construct having a FLAG tag on the N-terminal side and a recognition sequence for biotin ligase BirA on the C-terminal side was prepared (Reg1_301-599). The above-mentioned Regnase-1 was expressed in mammalian Expi293 cells, purified with FLAG M2 agarose, and isolated by gel filtration chromatography. When biotinylation was required, methods of nonpatent documents (BMC biotechnology, 2008,8,41; and Protein Science, 1999,8,921-929) were used.
as §2, §3, §4

The target of test [6] is T7, Reg1_301-599 (amino acids 301-599 of human Regnase-1) phosphorylation by TBK1 (Homo sapiens, UniProt Q5D1E8).
T7 construct: made in house; host or cells: Expi293 cells
T7 sequence (Q5D1E8 301-599): T6 sequence (Q5D1E8 301-599)
The test can be described thus: Regnase-1 phosphorylation inhibition by compounds (AlphaScreen), TBK1, C-terminal Regnase-1. It counts as biochemical. Particulars: Table 13, read-out: Phosphorylation inhibition Reg1_301-599, 50% inhibition concentration (TBK1). The procedure: as §7, §2, §3, §4

For `CC(C)[C@@H]1NC(=O)[C@H](Cc2c[nH]c3ccccc23)NC(=O)[C@H](CCCCN)NC(=O)[C@H](Cc2c[nH]c3ccccc23)NC(=O)[C@H](CCC(N)=O)NC(=O)[C@H](CCCNC(=N)N)NC(=O)[C@H](Cc2ccccc2)NC(=O)[C@H](CCCNC(=N)N)NC(=O)[C@H](C)N(C)C(=O)C[C@@H](C(=O)N2CCCC2)NC(=O)[C@@H]2CCCN2C(=O)[C@H](Cc2ccc(O)cc2)NC1=O` [PP13] (HELM PEPTIDE1{[meA].R.F.R.Q.W.K.W.V.Y.P.D.[C1CCN([*:1])C1]}$PEPTIDE1,PEPTIDE1,1:R1-12:R3$$$V2.0), the pIC50 is 5.08 in test [1], 5.44 in test [2], 4.86 in test [3] and 4.77 in test [4]. Moreover, the “AS-MS ratio(%)” value at FL_Reg1 was found to be 0.1%.

As to `CC[C@H](C)[C@@H]1NC(=O)[C@H](CC(N)=O)NC(=O)[C@H](Cc2ccc(O)cc2)NC(=O)[C@H](Cc2c[nH]c3ccccc23)NC(=O)[C@H](CO)NC(=O)[C@H](CC(N)=O)NC(=O)[C@H](Cc2c[nH]c3ccccc23)NC(=O)[C@H](Cc2ccc(O)cc2)NC(=O)[C@H](CCCCN)NC(=O)[C@H](CO)NC(=O)[C@@H](C)N(C)C(=O)C[C@@H](C(=O)N2CCCC2)NC(=O)[C@H](Cc2c[nH]c3ccccc23)NC1=O` [PP8] (HELM PEPTIDE1{[C[C@H](C(=O)[*:2])N(C)[*:1]].S.K.Y.W.N.S.W.Y.N.I.W.D.[C1CCN([*:1])C1]}$PEPTIDE1,PEPTIDE1,1:R1-13:R3$$$V2.0), the pIC50 in test [1] is 5.54; in test [2] it was 5.85; in test [5], 5.24; in test [3] it was 5.19; in test [4], 5.13.

Take `CC[C@H](C)[C@@H]1NC(=O)[C@H](Cc2c[nH]c3ccccc23)NC(=O)[C@H](CO)NC(=O)[C@H](Cc2c[nH]c3ccccc23)NC(=O)[C@H](C(C)C)NC(=O)CNC(=O)[C@H](Cc2ccccc2)NC(=O)[C@H](CCCNC(=N)N)NC(=O)[C@H](C)N(C)C(=O)C[C@@H](C(=O)N2CCCC2)NC(=O)[C@@H]2CCCN2C(=O)[C@H](Cc2ccc(O)cc2)NC1=O` [PP14] (HELM PEPTIDE1{[meA].R.F.G.V.W.S.W.I.Y.P.D.[C1CCN([*:1])C1]}$PEPTIDE1,PEPTIDE1,1:R1-12:R3$$$V2.0): the pIC50 is 5.51 in test [1]; 5.17 in test [6]; 5.80 in test [2]; 5.19 in test [5]; 5.15 in test [3]; 4.70 in test [4].
